Experimental data reported in patent US20060014723A1, “Anti-parasitic uses of borinic acid complexes” (priority 2004, published 2006).
Converted amounts (≈) assume the structure as drawn.

What was measured:
[1] = test system: T. b. rhodesiense STIB 900; experiment: African sleeping sickness in vitro screening model (Alamar Blue); format: cell-based, Trypanosoma brucei rhodesiense; conditions: for IC50: Trypanosoma brucei
Protocol: Bloodstream from trypomastigotes of the strains (a) and (c) are maintained in Minimal Essential Medium (MEM) with Earle's salts supplemented according to Baltz, et al., (EMBO J. 4:1273-1277, 1985) with 25 mM N-2-hydroxyethylpiperazine-N′-2-ethane-sulphonic acid (HEPES), 1 g/L additional glucose, 1% MEM non-essential amino acids (100×), 0.2 mM 2-mercaptoethanol, 2 mM sodium pyruvate, 0.1 mM hypoxanthine and 15% heat-inactivated horse serum.
All cultures and assays are conducted at 37° C. under an atmosphere of 5% CO2 in air.
After use the stocks are kept at −20° C. For the assays, the compound is further diluted in serum-free culture medium and finally to the appropriate concentration in complete medium without hypoxanthine.
Assays are performed in 96-well microtiter plates, each well containing 100 μL of culture medium with 8×10^3 bloodstream forms with or without a serial drug dilution. The highest concentration for the test compounds is 90 μg/mL. Seven 3-fold drug dilutions are used, covering a range from 90 μg/mL to 0.123 μg/mL. Each drug is tested in duplicate. Active compounds are tested twice for confirmation. The final result is the mean of the four individual IC50 values. After 72 hrs of incubation, the plates are inspected under an inverted microscope to assure growth of the controls and sterile conditions.
Ten μL of Alamar Blue (12.5 mg resazurin dissolved in 100 mL distilled water) are now added to each well and the plates are incubated for another 2 hours. Then the plates are read with a Spectramax GEMINI XS microplate fluorometer (Molecular Devices Cooperation, Sunnyvale, Calif., USA) using an excitation wavelength of 536 nm and an emission wave length of 588 nm.
IC50 values are determined using the microplate reader software Softmax Pro (Molecular Devices Cooperation, Sunnyvale, Calif., USA).

[2] = test system: Trypanosoma cruzi Tulahuen C2C4 strain; experiment: Chagas disease in vitro screening model (beta-galactosidase strain in L-6 cells); format: cell-based
Protocol: Trypanosoma cruzi Tulahuen C2C4 strain, containing the β-galactosidase (Lac Z) gene (Buckner et al., Antimicrob. Agents Chemother 40:2592-2597, 1996) is used for this study.
The infective amastigote and trypomastigote stages are cultivated in L-6 cells (a rat skeletal myoblast cell line) in RPMI 1640 medium supplemented with 2 mM L-glutamine and 10% heat-inactivated fetal bovine serum in 12.5 cm^2 tissue culture flasks. Amastigotes develop intracellularly, differentiate into trypomastigotes, and leave the host cell. These trypomastigotes infect new L-6 cells and are the stages used to initiate an infection in the assay. All cultures and assays are conducted at 37° C. under an atmosphere of 5% CO2 in air.
(§1) After use the stocks are kept at −20° C. For the assays, the compound is further diluted to the appropriate concentration using complete medium.
Assays are performed in sterile 96-well microtiter plates, each well containing 100 μl medium with 2×10^3 L-6 cells. After 24 hours, […] of a trypanosome suspension containing 5×10^3 trypomastigote bloodstream forms from culture are added to the wells. Forty-eight hours later, the medium is removed from the wells and replaced by […] fresh medium, with or without a serial drug dilution. At this point the L-6 cells should be infected with amastigotes and no free trypomastigotes should be in the medium. Seven 3-fold drug dilutions are used, covering a range from 90 μg/mL to 0.123 μg/mL. Each drug is tested in duplicate. Active compounds are tested twice for confirmation. After 96 hours of incubation the plates are inspected under an inverted microscope to assure growth of the controls and sterility.
Then the substrate CPRG/Nonidet (50 μl) is added to all wells. A colour reaction will become visible within 2-6 hours and can be read photometrically at 540 nm. Data are transferred into a graphics program (e.g., EXCEL), sigmoidal inhibition curves determined and IC50 values calculated.

[3] = test system: Leishmania donovani strain MHOM/ET1671L82; experiment: Leishmaniasis in vitro screening model (axenic amastigotes, Alamar Blue); format: cell-based
Protocol: The Leishmania donovani strain MHOM/ET1671L82 (obtained from Dr. S. Croft, London School of Hygiene and Tropical Medicine) is used. The strain is maintained in the Syrian Golden hamster. Amastigotes are collected from the spleen of an infected hamster. Amastigotes are grown in axenic culture at 37° C. in SM medium (Cunningham I., J. Protozoal. 24:325-329, 1977) at pH 5.4 supplemented with 10% heat-inactivated fetal bovine serum (FBS) under an atmosphere of 5% CO2 in air.
as §1
Assays are performed in 96-well flat-bottom microtiter plates (Costar, Corning Inc.), each well containing 100 μl of culture medium with 105 amastigotes from axenic culture with or without a serial drug dilution. Concentration of amastigotes is determined in a CASY cell analyzing system (Scharfe System, Reutlingen, Germany). Before the amastigotes are counted, the parasite culture is passed twice through a 22-gauge needle to break up clusters of amastigotes.
The highest concentration for the test compounds is 90 μg/mL. Seven 3-fold dilutions are used, covering a range from […]. Each drug is tested in duplicate. Active compounds are tested twice for confirmation. After 72 hours of incubation, the plates are inspected under an inverted microscope to assure growth of the controls and sterile conditions.
Ten μL of Alamar Blue (12.5 mg resazurin dissolved in 100 mL distilled water) are then added to each well and the plates are incubated for another 2 hours. Then the plates are read with a Spectramax GEMINI XS microplate fluorometer (Molecular Devices Cooperation, Sunnyvale, Calif., USA) using an excitation wave length of 536 nm and an emission wave length of 588 nm.
Data are analyzed using the microplate reader software Softmax Pro (Molecular Devices Cooperation, Sunnyvale, Calif., USA). Decrease of fluorescence (i.e. inhibition) is expressed as percentage of the fluorescence of control cultures and plotted against the drug concentrations. The IC50 value is calculated from the sigmoidal inhibition curve by the software program.

With `CC1(C)COC(c2cccc(B(Oc3cccc4cccnc34)c3cccc(Cl)c3)c2)=N1` [Compound 18, (3-Chlorophenyl)[3-(4,5-dihydro-4,4-dimethyloxazol-2yl)phenyl]borinic acid quinolin-8-yl ester] as the compound, how does the IC50 [1] read?
The IC50 was 1.7 µg/mL (≈ 3.86 µM).

What does the source list for `Fc1cccc(B(Oc2cccc3cccnc23)c2ccc(Cl)c(Cl)c2)c1` [Compound 46, (3,4-Dichlorophenyl)(3-fluorophenyl)borinic acid quinolin-8-yl ester]?
IC50 [1]: 0.51 µg/mL (≈ 1.29 µM); IC50 ([2]; Trypanosoma cruzi, TULAHUEN, L6, read-out: T. cruzi IC50): 0.84 µg/mL (≈ 2.12 µM); IC50 ([3]; Leishmania donovani, read-out: L. donovani IC50): 0.44 µg/mL (≈ 1.11 µM)

For `Cc1cccc(B(Oc2cccc3cccnc23)c2cccc(C)c2)c1` [Compound 86], which “T. b. rhodesiense IC50” value [1] is on record?
The value was 0.35 µg/mL.

And the “T. cruzi IC50” value [2]?
The value was 3 µg/mL.

What about the “L. donovani IC50” value [3] of the same compound?
The value was 0.59 µg/mL.

With `N#Cc1ccc(B(Oc2cccc3cccnc23)c2ccc(C#N)cc2)cc1` [Compound 88] as the compound, how does the “T. b. rhodesiense IC50” value [1] read?
The value was 0.41 µg/mL.

And the “T. cruzi IC50” value [2]?
Its value is 1.385 µg/mL.

What about the “L. donovani IC50” value [3] of the same compound?
The value was 0.76 µg/mL.

`Clc1ccc(B(Oc2c(I)cc(Cl)c3cccnc23)c2ccc(Cl)cc2)cc1` [Compound 90] was tested. Which “T. b. rhodesiense IC50” value [1] did it give?
The value was 1.4 µg/mL.

And the “T. cruzi IC50” value [2]?
Its value is 3.25 µg/mL.

What about the “L. donovani IC50” value [3] of the same compound?
The value was 0.15 µg/mL.

Which “T. b. rhodesiense IC50” value [1] does the source give for `Cc1cc(C)c2cccnc2c1OB(c1ccc(F)cc1)c1ccc(Cl)cc1` [Compound 91] here?
Its value is 0.36 µg/mL.

And the “T. cruzi IC50” value [2]?
Its value is 4.3 µg/mL.

What about the “L. donovani IC50” value [3] of the same compound?
Its value is 0.94 µg/mL.

`Fc1ccc(B(Oc2c(Cl)cc(Cl)c3cccnc23)c2ccc(Cl)cc2)cc1` [Compound 92] was tested. Which “T. b. rhodesiense IC50” value [1] did it give?
Its value is 1.1 µg/mL.

And the “T. cruzi IC50” value [2]?
The value was 2.55 µg/mL.

What about the “L. donovani IC50” value [3] of the same compound?
The value was 0.052 µg/mL.

Which results are given for `C=CB(Oc1cccc2cccnc12)c1cccnc1` [Compound 94]?
T. b. rhodesiense IC50 [1]: 0.495 µg/mL; T. cruzi IC50 [2]: 2.8 µg/mL; L. donovani IC50 [3]: 0.55 µg/mL

`N#Cc1cccc(B(Oc2cccc3cccnc23)c2ccc(F)c(F)c2)c1` [Compound 95] was tested. Which “T. b. rhodesiense IC50” value [1] did it give?
The value was 0.435 µg/mL.

What about the “T. cruzi IC50” value [2] of the same compound?
Its value is 2.95 µg/mL.

And the “L. donovani IC50” value [3]?
The value was 0.61 µg/mL.

How did the “T. b. rhodesiense IC50” value [1] turn out when `Clc1cccc(B(Oc2cccc3cccnc23)c2cccnc2)c1` [Compound 99] was run?
The value was 0.345 µg/mL.

What about the “T. cruzi IC50” value [2] of the same compound?
Its value is 4.45 µg/mL.

And the “L. donovani IC50” value [3]?
Its value is 0.49 µg/mL.

For `C=CB(Oc1cccc2cccnc12)c1ccc(OC)nc1` [Compound 100], which “T. b. rhodesiense IC50” value [1] is on record?
The value was 0.305 µg/mL.

And the “T. cruzi IC50” value [2]?
The value was 3.8 µg/mL.

And the “L. donovani IC50” value [3]?
Its value is 0.33 µg/mL.

Which results are given for `C=CB(Oc1cccc2cccnc12)c1ccc(F)nc1` [Compound 101]?
T. b. rhodesiense IC50 [1]: 0.3 µg/mL; T. cruzi IC50 [2]: 3.95 µg/mL; L. donovani IC50 [3]: 0.34 µg/mL

Which “T. b. rhodesiense IC50” value [1] does the source give for `N#Cc1cccc(B(Oc2cccc3cccnc23)c2cccnc2)c1` [Compound 102] here?
Its value is 0.49 µg/mL.

What about the “T. cruzi IC50” value [2] of the same compound?
The value was 4.2 µg/mL.

What about the “L. donovani IC50” value [3] of the same compound?
Its value is 0.37 µg/mL.

How did the “T. b. rhodesiense IC50” value [1] turn out when `Cc1ccc(B(Oc2cccc3cccnc23)c2ccco2)cc1Cl` [Compound 103] was run?
The value was 0.38 µg/mL.

And the “T. cruzi IC50” value [2]?
Its value is 4.4 µg/mL.

And the “L. donovani IC50” value [3]?
The value was 0.35 µg/mL.

Which results are given for `CN(C)CCOc1ccc(B(Oc2cccc3cccnc23)c2ccc(Cl)cc2)cc1` [Compound 104]?
T. b. rhodesiense IC50 [1]: 1.24 µg/mL; T. cruzi IC50 [2]: 4.3 µg/mL; L. donovani IC50 [3]: 0.71 µg/mL

What does the source list for `CN(C)Cc1ccc(B(Oc2cccc3cccnc23)c2ccc(Cl)cc2)cc1.Cl` [Compound 105]?
T. b. rhodesiense IC50 [1]: 0.41 µg/mL; T. cruzi IC50 [2]: 4.2 µg/mL; L. donovani IC50 [3]: 0.72 µg/mL

How did the “T. b. rhodesiense IC50” value [1] turn out when `CN(C)Cc1ccc(B(Oc2cccc3cccnc23)c2ccc(Cl)cc2)cc1.O=C(O)/C=C/C(=O)O` [Compound 106] was run?
Its value is 0.385 µg/mL.

What about the “T. cruzi IC50” value [2] of the same compound?
The value was 4.25 µg/mL.

And the “L. donovani IC50” value [3]?
Its value is 0.69 µg/mL.

Which “T. b. rhodesiense IC50” value [1] does the source give for `CSc1cccc(B(Oc2cccc3cccnc23)c2cccc(Cl)c2)c1` [Compound 107] here?
The value was 0.365 µg/mL.

What about the “T. cruzi IC50” value [2] of the same compound?
Its value is 4.1 µg/mL.

What about the “L. donovani IC50” value [3] of the same compound?
Its value is 0.42 µg/mL.

What does the source list for `Cc1cc(Cl)ccc1B(Oc1cccc2cccnc12)c1ccc(Cl)cc1C` [Compound 109]?
T. b. rhodesiense IC50 [1]: 0.405 µg/mL; T. cruzi IC50 [2]: 4.35 µg/mL; L. donovani IC50 [3]: 0.75 µg/mL

Which results are given for `CN(C)Cc1ccc(B(Oc2cccc3cccnc23)c2ccc(F)c(F)c2)cc1` [Compound 110]?
T. b. rhodesiense IC50 [1]: 0.38 µg/mL; T. cruzi IC50 [2]: 4.7 µg/mL; L. donovani IC50 [3]: 0.61 µg/mL

How did the “T. b. rhodesiense IC50” value [1] turn out when `CC1CCN(S(=O)(=O)c2ccc(B(Oc3cccc4cccnc34)c3ccc(Cl)cc3)cc2)CC1` [Compound 111] was run?
Its value is 0.552 µg/mL.

And the “T. cruzi IC50” value [2]?
The value was 4.15 µg/mL.

And the “L. donovani IC50” value [3]?
Its value is 0.74 µg/mL.

Which results are given for `CN(C)Cc1ccc(B(Oc2cccc3cccnc23)c2cccc(C#N)c2)cc1.O=C(O)/C=C/C(=O)O` [Compound 112]?
T. b. rhodesiense IC50 [1]: 0.44 µg/mL; T. cruzi IC50 [2]: 4.2 µg/mL; L. donovani IC50 [3]: 0.98 µg/mL

`N#Cc1cccc(B(Oc2cccc3cccnc23)c2cc(F)ccc2F)c1` [Compound 113] was tested. Which “T. b. rhodesiense IC50” value [1] did it give?
Its value is 0.39 µg/mL.

What about the “T. cruzi IC50” value [2] of the same compound?
The value was 4.25 µg/mL.

What about the “L. donovani IC50” value [3] of the same compound?
Its value is 0.57 µg/mL.

Which “T. b. rhodesiense IC50” value [1] does the source give for `Fc1ccc(B(Oc2cccc3cccnc23)c2ccc(Cl)cc2)cc1F` [Compound 114] here?
Its value is 0.41 µg/mL.

What about the “T. cruzi IC50” value [2] of the same compound?
Its value is 4 µg/mL.

And the “L. donovani IC50” value [3]?
Its value is 0.71 µg/mL.

For `C=CB(Oc1cccc2cccnc12)c1ccco1` [Compound 117], which “T. b. rhodesiense IC50” value [1] is on record?
Its value is 0.295 µg/mL.

And the “T. cruzi IC50” value [2]?
The value was 3.65 µg/mL.

What about the “L. donovani IC50” value [3] of the same compound?
The value was 0.63 µg/mL.
